{"source": "paper PMC5500888", "about": "“Structural insights into the mechanism of the membrane integral N-acyltransferase step in bacterial lipoprotein synthesis” (Nature Communications, 2017)", "key": {"[1]": {"biological_target": "T1, LntPae (Pseudomonas aeruginosa, UniProt Q9ZI86)", "T1 construct": "gene lnt; full-length membrane enzyme, N-terminal thrombin-cleavable His6-tag (pET28a, synthetic gene), expressed in E. coli C41(DE3), purified in LMNG; tag cleavage not described", "T1 sequence (Q9ZI86 1-511)": "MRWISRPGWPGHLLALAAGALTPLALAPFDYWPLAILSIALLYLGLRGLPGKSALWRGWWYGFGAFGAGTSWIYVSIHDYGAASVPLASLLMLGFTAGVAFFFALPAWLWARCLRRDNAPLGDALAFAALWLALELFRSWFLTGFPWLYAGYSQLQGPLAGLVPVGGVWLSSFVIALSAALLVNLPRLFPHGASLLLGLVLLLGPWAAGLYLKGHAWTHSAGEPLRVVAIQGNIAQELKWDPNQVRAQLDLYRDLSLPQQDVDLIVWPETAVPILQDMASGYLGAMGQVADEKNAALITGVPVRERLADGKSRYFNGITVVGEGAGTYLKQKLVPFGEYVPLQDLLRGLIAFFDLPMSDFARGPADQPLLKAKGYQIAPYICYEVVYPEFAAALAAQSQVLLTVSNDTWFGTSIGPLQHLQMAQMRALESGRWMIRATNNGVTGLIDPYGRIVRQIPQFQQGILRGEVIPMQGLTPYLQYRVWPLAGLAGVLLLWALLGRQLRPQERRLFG", "assay": "SDS-PAGE band shift of FSL-1-biotin with western blot", "type": "biochemical", "details": "acyl donor 500 uM; co-substrate FSL-1-biotin 2.5-5 uM; 20 nM enzyme; 0.1% Triton X-100; pH 7.2 or 6.5; 37 C"}, "[2]": {"biological_target": "T2, LntEco (Escherichia coli, UniProt P23930)", "T2 construct": "gene lnt; full-length membrane enzyme, N-terminal thrombin-cleavable His6-tag (pET28a, synthetic gene), expressed in E. coli C43(DE3), purified in LMNG; tag cleavage not described", "assay": "TLC with fluorescence of lyso-NBD-PE formed", "type": "biochemical", "details": "labelled compound; NBD-PE 500 uM; co-substrate FSL-1 150 uM; 8 uM enzyme; 50 mM Tris-HCl pH 7.5, 150 mM NaCl, 1 mM TCEP, 0.02% LMNG; 37 C"}}}
{"compound": "CCCCCCCC/C=C\\CCCCCCCC(=O)OC[C@H](COP(=O)(O)OCC(O)CO)OC(=O)CCCCCCC/C=C\\CCCCCCCC", "note": "(some centres unmarked) [DOPG]", "values": [{"measurement": "SDS-PAGE band shift of FSL-1-biotin with western blot", "setting": "[1]", "value": "When DOPE was replaced with DOPG or DOPC, the product was formed much less efficiently"}]}
{"compound": "CCCCCCCC/C=C\\CCCCCCCC(=O)OC[C@H](COP(=O)(O)OCCN)OC(=O)CCCCCCCCCCCNc1ccc([N+](=O)[O-])c2nonc12", "note": "[NBD-PE]", "values": [{"measurement": "TLC with fluorescence of lyso-NBD-PE formed", "setting": "[2]", "value": "Time course of lyso-PE production catalysed by LntEco"}]}
